Results from US10947188B2, “Small molecule ferroptosis inducers” (THE TRUSTEES OF COLUMBIA UNIVERSITY IN THE CITY OF NEW YORK, priority 2016, dated 2021).

Tests used:
BJeLR = experiment: Modulatory profiling: Alamar Blue viability, lethal compound cotreated with death modulator (EC50, AUC); assay type: cell-based, human; parameters: AUC, modulator BJ.Gd3+ / AUC, modulator BJ.LNAME / AUC, modulator BJ.Lmin / AUC, modulator BJ.3MA / AUC, modulator BJ.ALLN / AUC, modulator BJ.Boc D / AUC, modulator BJ.CHX / AUC, modulator BJ.Co2+ / AUC, modulator BJ.Nec-1 / AUC, modulator BJ.Pepstatin / AUC, modulator BJ.TLCK / AUC, modulator BJ.atoc / AUC, modulator BJ.trolox / AUC, modulator BJ.zVAD: unit not given beside the values; settings: BJeLR cells, modulatory profile value (AUC); for AUC, modulator BJ.3MA: lethal compound cotreated with modulator 3MA; for AUC, modulator BJ.ALLN: lethal compound cotreated with modulator ALLN; for AUC, modulator BJ.Boc D: lethal compound cotreated with modulator Boc D; for AUC, modulator BJ.CHX: lethal compound cotreated with modulator CHX; for AUC, modulator BJ.Co2+: lethal compound cotreated with modulator Co2+; for AUC, modulator BJ.DPQ: lethal compound cotreated with modulator DPQ; for AUC, modulator BJ.Gd3+: lethal compound cotreated with modulator Gd3+; for AUC, modulator BJ.LNAME: lethal compound cotreated with modulator LNAME; for AUC, modulator BJ.Lmin/NAD+: lethal compound cotreated with modulator Lmin/NAD+; for AUC, modulator BJ.Lmin: lethal compound cotreated with modulator Lmin; for AUC, modulator BJ.NAD+: lethal compound cotreated with modulator NAD+; for AUC, modulator BJ.NMMA: lethal compound cotreated with modulator NMMA; for AUC, modulator BJ.Nec-1: lethal compound cotreated with modulator Nec-1; for AUC, modulator BJ.Pepstatin: lethal compound cotreated with modulator Pepstatin; for AUC, modulator BJ.TLCK: lethal compound cotreated with modulator TLCK
[1] = Cobalt (II) binding assay in vitro (absorbance spectrum); settings: absorbance 300-700 nm
Procedure: For each cluster I compound (CIL13, −52, and −64), prepared two-fold dilution series with DMSO. We added 30 μL per well of either water or 10 μM cobalt (II) chloride solution to each well of a 384-well plate. Dilution series of each compound in DMSO were added by 10 μL per well. After solutions had been mixed by shaking of the plate using a Victor 3 plate reader (PerkinElmer), absorbance was scanned between 300 and 700 nm for each compound. Finally the following Absorbance value for each compound was plotted (see FIG. 9B):
[formula] where Abs is the absorbance at each wavelength. Search of Commercially Available Structural Analogs of CIL41/70.

HT-1080 = experiment: Modulatory profiling: Alamar Blue viability, lethal compound cotreated with death modulator (EC50, AUC); assay type: cell-based; parameters: AUC, modulator HT.3MA / AUC, modulator HT.ALLN / AUC HT.ATA / AUC HT.ActD / AUC HT.BHA / AUC HT.BHT / AUC HT.BocD / AUC HT.CHX / AUC HT.Co2+ / AUC HT.DPQ / AUC HT.EGTA / AUC HT.Lmim / AUC HT.NAD+ / AUC HT.Nec-1 / AUC HT.SP600125 / AUC HT.TLCK / AUC HT.U0126: unit not given beside the values; settings: for AUC HT.ATA: HT-1080, modulator ATA; for AUC HT.ActD: HT-1080, modulator ActD; for AUC HT.BHA: HT-1080, modulator BHA; for AUC HT.BHT: HT-1080, modulator BHT; for AUC HT.BocD: HT-1080, modulator BocD; for AUC HT.CHX: HT-1080, modulator CHX; for AUC HT.Co2+: HT-1080, modulator Co2+; for AUC HT.CspA: HT-1080, modulator CspA; for AUC HT.DPQ: HT-1080, modulator DPQ; for AUC HT.EGTA: HT-1080, modulator EGTA; for AUC HT.Gd3+: HT-1080, modulator Gd3+; for AUC HT.LNAME: HT-1080, modulator LNAME; for AUC HT.Lmim: HT-1080, modulator Lmim; for AUC HT.NAD+: HT-1080, modulator NAD+; for AUC HT.NMMA: HT-1080, modulator NMMA; for HT.atoc (AUC) / HT.bCarotene (AUC) / HT.deferox (AUC) / HT.digoxin (AUC) / HT.trolox (AUC) / HT.zVAD (AUC): HT-1080; for HT.atoc (AUC): modulator atoc; for HT.bCarotene (AUC): modulator bCarotene; for HT.deferox (AUC): modulator deferox; for HT.digoxin (AUC): modulator digoxin; for HT.trolox (AUC): modulator trolox; for HT.zVAD (AUC): modulator zVAD; for effect of cobalt (II) on lethality: modulatory profiles, CoCl2 supplementation
HT-1080 cells = experiment: Cell viability assay (Alamar Blue), lethal compounds with or without modulators; assay type: cell-based; settings: HT-1080 cells
Procedure: 1,000 cells per 36 μl were seeded in each well in 384-well plates. Lethal compounds were dissolved, and a twofold, 12-point dilution series was prepared in DMSO. Compound solutions were further diluted with media at 1:25, and 4 μl per well of the diluted solutions was added to cell cultures immediately after cells were seeded. […] When other cell-death-modulating compounds (100 nM sodium selenite, 1 μM cerivastatin, 100 μg/mL mevalonic acid) were used in cotreatments, they were supplemented to cell culture for 24 h before lethal compounds were added to cell culture, after which cells were further incubated for 24 h at 37° C. under 5% CO2. On the day of the viability measurement, we added 10 μl per well of 50% Alamar Blue diluted in media (Life Technologies) and further incubated the cells at 37° C. for 6 h. Fluorescence intensity (excitation/emission: 530/590) was measured with a Victor 3 plate reader (PerkinElmer), and the normalized viability was calculated as VL=(IL−I0)/(IV−I0), where VL, I0, IV, and IL are the normalized viability and the raw fluorescence intensities from the wells containing media, cells treated with a vehicle (negative control), and cells with the lethal compound (L), respectively. When the effect of a chemical modulator (M) on L was calculated, we instead used the equation VL|M=(IM,L−I0)/(IM,V−I0), where VL|M, IM,L and IM,V are the normalized viability, and fluorescence intensity from cells treated with […], respectively. The viability was typically measured in biological triplicate unless otherwise specified. A representative dose-response curve, the mean and standard error of normalized viability from one replicate were plotted. […]

GPX4 = experiment: Western blotting of GPX4 protein abundance; assay type: cell-based, human; settings: BJeLR; cotreatment with 100 μM α-tocopherol; 10 h; FIN56 5 μM
Procedure: Seeded 300,000 cells (HT-1080 or BJeLR) per well in six-well plates. For cotreatment, ferroptosis inducers (10 μM erastin for 11 h, 0.5 μM (1S, 3R)-RSL3 for 2 h, or 5 μM FIN56) and 100 μM α-tocopherol were added to cell culture at the same time, and cells were then incubated for 10 h (FIG. 2E). When other death-modulating compounds (100 nM sodium selenite, 1 μM cerivastatin, 100 μg/mL mevalonic acid, 30 μM C75, or 2 μM cerulenin) were used in cotreatments, cells were pre-incubated with the modulators for 24 h before being treated with ferroptosis inducers for 6 h. Cell lysis, SDS-PAGE and protein transfer to PVDF membrane were performed as previously described (Dixon et al. 2012). We used the following antibodies: anti-human α-tubulin (Santa Cruz Biotechnology, sc-32293, 1:10,000 dilution), anti-human GPX4 (Abcam, ab41787, 1:2,000 dilution), anti-human GPX1 (R&D Systems, AF3798, 1:1,000 dilution), and anti-human SQS (Abcam, ab109723 for full-length, ab195046 for truncated, both at 1:1,000 dilution). Secondary antibodies were from LI-COR (1:3,000 dilution). The PVDF membranes labeled with primary and secondary antibodies were scanned using an Odyssey Imaging System (LI-COR). Experiments were performed in biological triplicates, and the mean±s.e. of intensity was plotted.

Row | SMILES | AUC, modulator BJ.3MA (BJeLR) | AUC, modulator BJ.ALLN (BJeLR) | AUC, modulator BJ.Boc D (BJeLR) | AUC, modulator BJ.CHX (BJeLR) | AUC, modulator BJ.Co2+ (BJeLR) | AUC, modulator BJ.DPQ (BJeLR) | AUC, modulator BJ.Gd3+ (BJeLR) | AUC, modulator BJ.LNAME (BJeLR) | AUC, modulator BJ.Lmin/NAD+ (BJeLR) | AUC, modulator BJ.Lmin (BJeLR) | AUC, modulator BJ.NAD+ (BJeLR) | AUC, modulator BJ.NMMA (BJeLR) | AUC, modulator BJ.Nec-1 (BJeLR) | AUC, modulator BJ.Pepstatin (BJeLR) | AUC, modulator BJ.TLCK (BJeLR) | binding to cobalt (II) in vitro [1] | AUC HT.ATA (HT-1080) | AUC HT.ActD (HT-1080) | AUC HT.BHA (HT-1080) | AUC HT.BHT (HT-1080) | other results
1 | C(=N\Nc1nc2ccccc2s1)/c1ccccn1 [CIL52] | 0.0119 | 0.01092 | 0.0184 | 0.03724 | 0.7978 | 0.03648 | 0.08327 | −0.01578 | 0.08265 | 0.007783 | 0.09321 | −0.006118 | 0.03888 | 0.02196 | 0.284 | bound to cobalt (II) in vitro | 0.03417 | 0.07379 | −0.01302 | −0.06719 | AUC HT.BocD (HT-1080): 0.008582; AUC HT.CHX (HT-1080): 0.1474; AUC HT.Co2+ (HT-1080): 0.4155; AUC HT.CspA (HT-1080): 0.05641; AUC HT.DPQ (HT-1080): −0.0133; AUC HT.EGTA (HT-1080): 0.09078; AUC HT.Gd3+ (HT-1080): −0.006922; AUC HT.LNAME (HT-1080): −0.009412; AUC HT.Lmim (HT-1080): 0.02654; AUC HT.NAD+ (HT-1080): 0.01945; AUC HT.NMMA (HT-1080): −0.01196; HT.atoc (AUC) (HT-1080): 0.07146; HT.bCarotene (AUC) (HT-1080): 0.06784; HT.deferox (AUC) (HT-1080): 0.2325; HT.digoxin (AUC) (HT-1080): −0.005506; HT.trolox (AUC) (HT-1080): −0.03942; HT.zVAD (AUC) (HT-1080): 0.02339; effect of cobalt (II) on lethality (HT-1080): inhibited by cobalt (II)
2 | COC(=O)c1ccc([C@H]2c3[nH]c4ccccc4c3C[C@H](C(=O)OC)N2C(=O)CCl)cc1 [(1S, 3R)-RSL3] | – | – | – | – | – | – | – | – | – | – | – | – | – | – | – | – | – | – | – | – | suppression of lethality by mevalonate-pathway modulators (FPP, YM-53601, idebenone) and α-tocopherol (HT-1080 cells; modulatory profiling scheme): potently suppressed by all the compounds; abundance of GPX4 protein (GPX4): Neither erastin nor (1S, 3R)-RSL3 affected the abundance of GPX4 to the same extent as FIN56
3 | F/C(COc1ccc2c(c1)[nH]c1ccccc12)=C1/CN2CCC1CC2 [YM-53601] | – | – | – | – | – | – | – | – | – | – | – | – | – | – | – | – | – | – | – | – | effect on FIN56 lethality (HT-1080 cells; modulator cotreatment or pretreatment): suppressed FIN56 lethality
4 | C/C(=N\Nc1ncc(Cl)cc1Cl)c1ccccn1 [CIL64] | 0.02465 | 0.0142 | 0.01108 | 0.04712 | 0.9402 | 0.009397 | 0.02721 | 0.03249 | 0.0757 | 0.02777 | 0.1422 | 0.001966 | 0.05533 | 0.04262 | 0.06508 | bound to cobalt (II) in vitro | 0.1979 | 0.04802 | −0.1469 | −0.3128 | AUC HT.BocD (HT-1080): −0.1078; AUC HT.CHX (HT-1080): 0.06685; AUC HT.Co2+ (HT-1080): 0.4161; AUC HT.CspA (HT-1080): 0.08661; AUC HT.DPQ (HT-1080): −0.135; AUC HT.EGTA (HT-1080): 0.1842; AUC HT.Gd3+ (HT-1080): −0.0263; AUC HT.LNAME (HT-1080): <0.2159; AUC HT.Lmim (HT-1080): −0.2705; AUC HT.NAD+ (HT-1080): −0.1971; AUC HT.NMMA (HT-1080): −0.1742; HT.atoc (AUC) (HT-1080): −0.06249; HT.bCarotene (AUC) (HT-1080): 0.1654; HT.deferox (AUC) (HT-1080): 0.127; HT.digoxin (AUC) (HT-1080): 0.0348; HT.trolox (AUC) (HT-1080): −0.08079; HT.zVAD (AUC) (HT-1080): 0.05557; effect of cobalt (II) on lethality (HT-1080): inhibited by cobalt (II)
